{"source": "patent US5773438A", "about": "“Synthetic matrix metalloprotease inhibitors and use thereof” (Glycomed Incorporated, priority 1994, dated 1998)", "key": {"[1]": {"target": "Stromelysin (Homo sapiens, UniProt P08254)", "sequence (P08254 100-477)": "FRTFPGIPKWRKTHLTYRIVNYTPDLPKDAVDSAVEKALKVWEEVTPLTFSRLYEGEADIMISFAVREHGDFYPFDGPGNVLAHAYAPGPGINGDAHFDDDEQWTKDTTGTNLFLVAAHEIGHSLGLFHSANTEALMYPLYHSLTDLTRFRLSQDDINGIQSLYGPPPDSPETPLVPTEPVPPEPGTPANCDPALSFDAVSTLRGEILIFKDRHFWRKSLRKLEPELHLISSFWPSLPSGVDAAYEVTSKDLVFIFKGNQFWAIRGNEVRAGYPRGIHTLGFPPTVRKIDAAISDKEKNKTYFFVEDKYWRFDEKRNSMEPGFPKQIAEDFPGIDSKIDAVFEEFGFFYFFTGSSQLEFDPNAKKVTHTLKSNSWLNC", "test": "inhibition of stromelysin (Table 2)", "type": "biochemical", "details": "read-out: Strom inhibitory activity", "quoted_text": "Specifically, assay of inhibition activity can be conducted as follows. […] Assays for inhibition of human stromelysin are conducted as described by Teahan, J., et al., Biochemistry (1989) 20:8497-8501.\nAssay of inhibition activity can be conducted using a fluorogenic substrate developed by Knight et al., FEBS Letters (1992) 296:263. This method uses a fluorometer to determine the rate of substrate hydrolysis in a 96 well plate format. Reaction rates are determined at several substrate concentrations, and multiple inhibitor levels. The data are analyzed by Lineweaver-Burk, Dixon and Henderson plot analyses (Enzyme Kinetics (1975) Irwin Segal (John Wiley & Sons, Inc., publishers), and as described by Henderson, Biochem J. (1972) 127:321). The substrate levels range from 10-30μM. […] Inhibitors may be assayed against purified 72 kD gelatinase, 92 kD gelatinase, neutrophil collagenase, stromelysin or other proteases as appropriate. The enzymes are activated at 37° C. with APMA (4-aminophenylmercuric acetate), and the assays are carried out at room temperature."}, "[2]": {"tested_on": "corneal vessels", "test": "inhibition of angiogenesis, rat cornea pellet implant (Walker 256 extract)", "type": "in vivo", "details": "10 mg/mL in 55% DMSO, infused into vena cava 0.8 mL/24 hr, six days", "method": "A crude extract (30 mg/mL protein) of Walker 256 carcinoma, a rat malignant tumor, was incorporated into Hydron, a slow release polymer, in 1.5 mm diameter pellets. Pellets were implanted in the stroma of the corneas of anesthetized albino rats. […] Controls received only the DMSO solution. After six days, the animals were re-anesthetized and perfused intra-arterially with India ink in order to visualize the corneal vessels. The eyes were then enucleated and fixed in 5% formalin. Control eyes which received only the DMSO solution show massive vessel growth toward the pellet from the limbus."}, "[3]": {"tested_on": "infiltration of neutrophils in the peritoneal cavity", "test": "thioglycollate induced peritonitis assay", "type": "in vivo, Balb/c male mice", "details": "800 μg/ml, 1 ml/animal i.p. at 0.5, 1.0, 2.0 hr; p=0.0141", "method": "6-8 week old Balb/c male mice were used (n=10 each for the treated and control groups). Thioglycollate suspension (5.9 g/l in deionized water) was boiled until the color was golden, then cooled yielding a pink color. The lavage solution consisted of saline supplemented with 0.1% bovine serum albumin (100 mg/100 ml) and 5U heparin/ml.\nCells were collected by lavage at T=3.0 hr. post thioglycollate administration. The animals were euthanized by CO2 asphyxiation, and the abdominal skin was cut with surgical scissors to reveal the peritoneal cavity. Five ml of lavage fluid was injected into the peritoneum, and a suspension was made by gentle massage. The fluid was removed by syringe, recovering about 80% of the injected fluid. Total cell counts in the lavage fluid were determined by Coulter Counter."}, "[4]": {"tested_on": "common carotid artery", "test": "anti-restenotic assay, balloon catheter injury of common carotid artery", "type": "in vivo, Male Sprague-Dawley rats", "method": "Male Sprague-Dawley rats (3-3.5 months old) were subject to balloon catheter injury of the common carotid artery (Clowes et al. Lab. Invest. (1983) 49:208-215). […] Rats were sacrificed at 4 days after injury. They were injected with 25 mg/kg BrdU subcutaneously at 17, 9 and 1 hours before sacrifice to label replicating vascular smooth muscle cells. A catheter was inserted into the aorta, and the carotids were fixed by perfusion with 4% paraformaldehyde at physiologic pressure. After carefully dissecting out the common carotid, the vessels were embedded in paraffin, cross-sectioned and stained with anti-BrdU antibody and hematoxylin, and an index of medical smooth muscle cell replication was obtained by expressing the % labelled SMCs ([…] et al., J. Clin. Invest. (1992) 90:2044-2049). After fixation, the common carotids were pinned out with the intimal surface facing upwards, and cells present on the intimal surface were stained with an antibody to histone proteins. […] The surface cells were counted and the number of cells per unit area was determined. […] The animals were injected with BrdU before sacrifice to label replicating cells in the media and intima. By 10 days after injury, the normal vessel forms a thickened neointima; smooth muscle migration in to the intima and subsequent proliferation contribute to this thickening. Cross-sections of the vessel were cut and stained with anti-BrdU and hematoxylin. Intimal cross-sectional areas were measured using a computer digitizing system. […] All data are presented as mean+SEM, and the data were analyzed by student's test."}}, "data": [{"smiles": "CNC(=O)[C@H](Cc1c[nH]c2ccccc12)NC(=O)[C@@H](CC(=O)NO)CC(C)C", "note": "[Compound 5A, N-[D,L-2-isobutyl-3-(N'-hydroxycarbonylamido)-propanoyl]-tryptophan methylamide]", "values": [{"measurement": "Ki", "setting": "[1]", "result": 27, "unit": "nM"}, {"measurement": "corneal vessel growth versus controls", "setting": "[2]", "result": "vessels much shorter and/or much finer than in the controls, barely filling with ink"}, {"measurement": "average number of cells in the peritoneum versus vehicle", "setting": "[3]", "result": "significantly reduced"}, {"measurement": "number of cells per unit area (intimal surface) versus CMC controls", "setting": "[4]; 4 day, 100 mg/kg i.p. daily", "result": "significant decrease"}, {"measurement": "cell migration into the intima", "setting": "[4]; 4 days after balloon injury", "result": "very large decrease"}, {"measurement": "intimal cell replication rate versus controls", "setting": "[4]; 10 day", "result": "significantly higher"}, {"measurement": "lesion thickness", "setting": "[4]; 10 day", "result": "dramatically reduced"}, {"measurement": "intimal cross-sectional area versus CMC controls", "setting": "[4]; 10 day, daily administration", "result": "significant decrease"}]}]}
